Like-named read-outs stand apart in the source and are kept apart here.

The target of this test is T1, PD-1/PD-L1 (Homo sapiens, UniProt Q9NZQ7).
T1 construct: made in house; host or cells: HEK293T
The test is described as follows: PD-1/PD-L1 Homogenous Time-Resolved Fluorescence (HTRF) binding assay. Particulars: PD-L1-His 10 nM, PD-1-Ig 20 nM, read-out: Range or IC50. In a few lines: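 Detection by europium cryptate anti-Ig plus APC anti-His (1 nM and 20 nM final) with HTRF signal. Buffer was dPBS, 0.1% BSA, 0.05% Tween-20.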
(Time-resolved FRET reads energy transfer from a long-lived donor to a nearby acceptor.)

T1 sequence (Q9NZQ7 with tags, fused parts or gaps): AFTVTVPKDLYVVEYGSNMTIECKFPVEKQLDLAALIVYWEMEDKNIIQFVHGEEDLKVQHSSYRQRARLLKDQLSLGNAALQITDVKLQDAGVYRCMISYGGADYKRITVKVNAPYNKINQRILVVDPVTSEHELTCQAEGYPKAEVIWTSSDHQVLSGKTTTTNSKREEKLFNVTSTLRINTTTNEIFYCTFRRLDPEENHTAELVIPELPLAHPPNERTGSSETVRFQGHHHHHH

Usually IC50 stands for the concentration that inhibits the measured activity by half. On to `Cc1c(COc2cc(OCc3cncc(C#N)c3)c(CNC(C)(CO)CO)cc2Cl)cccc1-c1cccc(OCCCN2CCC[C@@H](CO)C2)c1C` [Example 2289, (R)-5-((4-chloro-2-(((1,3-dihydroxy-2-methylpropan-2-yl)amino)methyl)-5-((3′-(3-(3-(hydroxymethyl)piperidin-1-yl)propoxy)-2,2′-dimethyl-[1,1′-biphenyl]-3-yl)methoxy)phenoxy)methyl)nicotinonitrile], for which, for the setting “value given as range class”, the IC50 lay within 0.21 to 10 nM.

As to `CC(=O)N[C@@H]1CCN(CCCOc2cccc(-c3cccc(COc4cc(OCc5cncc(C#N)c5)c(CNC(C)(CO)CO)cc4Cl)c3C)c2C)C1` [Example 2290, (R)—N-(1-(3-((3′-((2-chloro-5-((5-cyanopyridin-3-yl)methoxy)-4-(((1,3-dihydroxy-2-methylpropan-2-yl)amino)methyl)phenoxy)methyl)-2,2′-dimethyl-[1,1′-biphenyl]-3-yl)oxy)propyl)pyrrolidin-3-yl)acetamide], the IC50 (value given as range class) lay in the range of 0.21 to 10 nM.

Regarding `Cc1c(COc2cc(OCc3cncc(C#N)c3)c(CNC(CO)CO)cc2Cl)cccc1-c1cccc(OCCCN2CCCCC2)c1C` [Example 2291, 5-((4-chloro-2-(((1,3-dihydroxypropan-2-yl)amino)methyl)-5-((2,2′-dimethyl-3′-(3-(piperidin-1-yl)propoxy)-[1,1′-biphenyl]-3-yl)methoxy)phenoxy)methyl)nicotinonitrile], where the note is “numeric IC50”, the IC50 worked out at 1.9 nM.

Regarding `Cc1c(COc2cc(OCc3cncc(C#N)c3)c(CNC(CO)CO)cc2Cl)cccc1-c1cccc(OCCCN2CCC[C@@H](CO)C2)c1C` [Example 2292, (R)-5-((4-chloro-2-(((1,3-dihydroxypropan-2-yl)amino)methyl)-5-((3′-(3-(3-(hydroxymethyl)piperidin-1-yl)propoxy)-2,2′-dimethyl-[1,1′-biphenyl]-3-yl)methoxy)phenoxy)methyl)nicotinonitrile], the IC50 (value given as range class) was in the range of 0.21 to 10 nM.

For the compound `Cc1c(COc2cc(OCc3cncc(C#N)c3)c(CNC(CO)CO)cc2Cl)cccc1-c1cccc(OCCCNC[C@H](O)CO)c1C` [Example 2293, (S)-5-((4-chloro-2-(((1,3-dihydroxypropan-2-yl)amino)methyl)-5-((3′-(3-((2,3-dihydroxypropyl)amino)propoxy)-2,2′-dimethyl-[1,1′-biphenyl]-3-yl)methoxy)phenoxy)methyl)nicotinonitrile], the IC50 (value given as range class) was 0.21 to 10 nM.

On to `Cc1c(COc2cc(OCc3cncc(C#N)c3)c(CNC(CO)CO)cc2Cl)cccc1-c1cccc(OCCCN2CCC(CO)CC2)c1C` [Example 2294, 5-((4-chloro-2-(((1,3-dihydroxypropan-2-yl)amino)methyl)-5-((3′-(3-(4-(hydroxymethyl)piperidin-1-yl)propoxy)-2,2′-dimethyl-[1,1′-biphenyl]-3-yl)methoxy)phenoxy)methyl)nicotinonitrile], for which, under “value given as range class”, the IC50 lay in the range of 0.21 to 10 nM.

For the compound `Cc1c(COc2cc(OCc3cncc(C#N)c3)c(CNC(C)(CO)CO)cc2Cl)cccc1-c1cccc(OCCCN2CCC[C@H](CO)C2)c1C` [Example 2295, (S)-5-((4-chloro-2-(((1,3-dihydroxy-2-methylpropan-2-yl)amino)methyl)-5-((3′-(3-(3-(hydroxymethyl)piperidin-1-yl)propoxy)-2,2′-dimethyl-[1,1′-biphenyl]-3-yl)methoxy)phenoxy)methyl)nicotinonitrile], the IC50 (value given as range class) fell in the range of 0.21 to 10 nM.

As for `Cc1c(COc2cc(OCc3cncc(C#N)c3)c(CNC(CO)CO)cc2Cl)cccc1-c1cccc(OCCCN2CCC[C@H](CO)C2)c1C` [Example 2296, (S)-5-((4-chloro-2-(((1,3-dihydroxypropan-2-yl)amino)methyl)-5-((3′-(3-(3-(hydroxymethyl)piperidin-1-yl)propoxy)-2,2′-dimethyl-[1,12′-biphenyl]-3-yl)methoxy)phenoxy)methyl)nicotinonitrile], the IC50 (value given as range class) was in the range of 0.21 to 10 nM.

Consider `Cc1c(COc2cc(OCc3cncc(C#N)c3)c(CNC(C)(CO)CO)cc2Cl)cccc1-c1cccc(OCCCNC[C@H](O)CO)c1C` [Example 2297, (S)-5-((4-chloro-2-(((1,3-dihydroxy-2-methylpropan-2-yl)amino)methyl)-5-((3′-(3-((2,3-dihydroxypropyl)amino)propoxy)-2,2′-dimethyl-[1,1′-biphenyl]-3-yl)methoxy)phenoxy)methyl)nicotinonitrile], for which, where the note is “value given as range class”, the IC50 lay within 0.21 to 10 nM.

For `Cc1c(OCCCN2CC[C@H](CO)[C@H](O)C2)cccc1-c1cccc(COc2cc(OCc3cncc(C#N)c3)c(CNC(CO)CO)cc2Cl)c1Cl` [Example 2298, 5-((4-chloro-5-((2-chloro-3′-(3-((3S,4R)-3-hydroxy-4-(hydroxymethyl)piperidin-1-yl)propoxy)-2′-methyl-[1,1′-biphenyl]-3-yl)methoxy)-2-(((1,3-dihydroxypropan-2-yl)amino)methyl)phenoxy)methyl)nicotinonitrile], the IC50 (value given as range class) lay in the range of 0.21 to 10 nM.

With `Cc1c(OCCCNC[C@H](O)CO)cccc1-c1cccc(COc2cc(OCc3cncc(C#N)c3)c(CNC(CO)CO)cc2Cl)c1Cl` [Example 2299, (S)-5-((4-chloro-5-((2-chloro-3′-(3-((2,3-dihydroxypropyl)amino)propoxy)-2′-methyl-[1,1′-biphenyl]-3-yl)methoxy)-2-(((1,3-dihydroxypropan-2-yl)amino)methyl)phenoxy)methyl)nicotinonitrile], where the note is “value given as range class”, the IC50 fell in the range of 0.21 to 10 nM.

In the case of `Cc1c(OCCCN2CC[C@@H](O)C2)cccc1-c1cccc(COc2cc(OCc3cncc(C#N)c3)c(CNC(CO)CO)cc2Cl)c1Cl` [Example 2300, (R)-5-((4-chloro-5-((2-chloro-3′-(3-(3-hydroxypyrrolidin-1-yl)propoxy)-2′-methyl-[1,1′-biphenyl]-3-yl)methoxy)-2-(((1,3-dihydroxypropan-2-yl)amino)methyl)phenoxy)methyl)nicotinonitrile], the IC50 (numeric IC50) is 1.7 nM.

Regarding `Cc1c(OCCCN2CCCCC2)cccc1-c1cccc(COc2cc(OCc3cncc(C#N)c3)c(CNC(CO)CO)cc2Cl)c1Cl` [Example 2301, 5-((4-chloro-5-((2-chloro-2′-methyl-3′-(3-(piperidin-1-yl)propoxy)-[1,1′-biphenyl]-3-yl)methoxy)-2-(((1,3-dihydroxypropan-2-yl)amino)methyl)phenoxy)methyl)nicotinonitrile], for the setting “value given as range class”, the IC50 fell in the range of 0.21 to 10 nM.

With `Cc1c(OCCCN2CC[C@@H](O)C2)cccc1-c1cccc(COc2cc(OCc3cncc(C#N)c3)c(CN3CCCC[C@H]3C(=O)O)cc2Cl)c1Cl` [Example 2302, (S)-1-(5-chloro-4-((2-chloro-3′-(3-((R)-3-hydroxypyrrolidin-1-yl)propoxy)-2′-methyl-[1,1′-biphenyl]-3-yl)methoxy)-2-((5-cyanopyridin-3-yl)methoxy)benzyl)piperidine-2-carboxylic Acid], the IC50 (value given as range class) was 0.21 to 10 nM.

With `Cc1c(OCCCNC[C@H](O)CO)cccc1-c1cccc(COc2cc(OCc3cncc(C#N)c3)c(CN3CCCC[C@H]3C(=O)O)cc2Cl)c1Cl` [Example 2303, (S)-1-(5-chloro-4-((2-chloro-3′-(3-(((S)-2,3-dihydroxypropyl)amino)propoxy)-2′-methyl-[1,1′-biphenyl]-3-yl)methoxy)-2-((5-cyanopyridin-3-yl)methoxy)benzyl)piperidine-2-carboxylic Acid], the IC50 (value given as range class) was 0.21 to 10 nM.

The values are drawn from patent US10745382B2 (BRISTOL-MYERS SQUIBB COMPANY, priority 2015, dated 2020).
